From patent US12115178B2, “Acylated active agents and methods of their use for the treatment of autoimmune disorders” (Flagship Pioneering Innovations V, Inc., priority 2018, dated 2024)

What was measured:
Assay type in all cases: in vitro ADME
[1] = Assay 1. Stability in Simulated Gastric Fluid (SGF); conditions: SGF pH 1.6 with pepsin, 1 μM, 37° C.
Summary of the method: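 Degradation rate from LC/MS of acetonitrile-quenched aliquots (T0, then regular intervals). Fresh SGF (pH 1.6 NaCl, FaSSIF powder, pepsin 0.1 mg/mL) held compound at 1 μM final, 37° C; 1 mM DMSO stock.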

[2] = Assay 2. Stability in Simulated Intestinal Fluid (SIF); conditions: SIF pH 6.7 with pancreatin, 1 μM, 37° C.
Summary of the method: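 Degradation rates came from LC/MS of acetonitrile-quenched samples drawn at intervals, starting at T0. The medium was freshly made pH 6.7 FaSSIF containing pancreatin, and test compound was present at 1 µM while being shaken at 37 °C.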

[3] = Assay 3. In vitro Colonic Material Stability Assay; conditions: colonic material slurry, anaerobic, 1 or 10 μM

## CCCC(=O)O[C@@H]1[C@@H](OC(=O)CCC)[C@H](C)O[C@@H](OC(=O)CCc2c[nH]c3ccccc23)[C@@H]1OC(=O)CCC [Compound 83, (2S,3R,4R,5S,6S)-4,5-bis(butanoyloxy)-2-{[3-(1H-indol-3-yl)propanoyl]oxy}-6-methyloxan-3-yl butanoate]
[1]
  Assay 1 (SGF) (% Remaining @ 1 hour): C (>75% of the tested compound remaining)
[2]
  Assay 2 (SIF) (% @ Remaining 4 hours): A (<25% of the tested compound remaining)
[3]
  Assay 3 (% Remaining at 24 h): A (<25% of the tested compound remaining)

## CCCC(=O)O[C@@H]1[C@@H](OC(=O)CCC)[C@@H](OC)OC[C@@H]1OC(=O)CCC [Compound 52, (2S,3R,4S,5S)-3,5-bis(butanoyloxy)-2-methoxyoxan-4-yl butanoate]
[1]
  Assay 1 (SGF) (% Remaining @ 1 hour): B (25-75% of the tested compound remaining)
[2]
  Assay 2 (SIF) (% @ Remaining 4 hours): B (25-75% of the tested compound remaining)
[3]
  Assay 3 (% Remaining at 24 h): B (25-75% of the tested compound remaining)

## CCC(=O)O[C@H]1O[C@H](C(=O)O)[C@@H](OC(=O)CC)[C@H](OC(=O)CC)[C@H]1OC(=O)CC [Compound 46, (2S,3S,4S,5R,6R)-3,4,5,6-tetrakis(propanoyloxy)oxane-2-carboxylic acid]
[1]
  Assay 1 (SGF) (% Remaining @ 1 hour): C (>75% of the tested compound remaining)
[2]
  Assay 2 (SIF) (% @ Remaining 4 hours): A (<25% of the tested compound remaining)
[3]
  Assay 3 (% Remaining at 24 h): A (<25% of the tested compound remaining)

## CCCC(=O)O[C@H]1[C@@H](Oc2ccc(N)cc2C(=O)O)OC[C@@H](OC(=O)CCC)[C@H]1OC(=O)CCC [Compound 21, 5-amino-2-(((2R,3R,4R,5R)-3,4,5-tris(butyryloxy)tetrahydro-2H-pyran-2-yl)oxy)benzoic acid]
[1]
  Assay 1 (SGF) (% Remaining @ 1 hour): C (>75% of the tested compound remaining)
[2]
  Assay 2 (SIF) (% @ Remaining 4 hours): C (>75% of the tested compound remaining)
[3]
  Assay 3 (% Remaining at 24 h): B (25-75% of the tested compound remaining)

## CC(=O)OC[C@H]1O[C@@H](OC(C)=O)[C@H](N)[C@@H](OC(C)=O)[C@@H]1OC(C)=O [Compound 162, (2S,3R,4R,5S,6R)-6-(acetoxymethyl)-3-aminotetrahydro-2H-pyran-2,4,5-triyl triacetate]
[1]
  Assay 1 (SGF) (% Remaining @ 1 hour): C (>75% of the tested compound remaining)
[2]
  Assay 2 (SIF) (% @ Remaining 4 hours): A (<25% of the tested compound remaining)
[3]
  Assay 3 (% Remaining at 24 h): C (>75% of the tested compound remaining)

## CCC(=O)O[C@@H]1[C@@H](OC(=O)CC)[C@@H](OC(=O)Cc2c[nH]c3ccccc23)OC[C@@H]1OC(=O)CC [Compound 108, (3S,4S,5R,6R)-6-{[2-(1H-indol-3-yl)acetyl]oxy}-4,5-bis(propanoyloxy)oxan-3-yl propanoate]
[1]
  Assay 1 (SGF) (% Remaining @ 1 hour): C (>75% of the tested compound remaining)
[2]
  Assay 2 (SIF) (% @ Remaining 4 hours): A (<25% of the tested compound remaining)
[3]
  Assay 3 (% Remaining at 24 h): A (<25% of the tested compound remaining)

## CCCC(=O)Oc1ccc(-c2oc3cc(OC(=O)CCC)cc(OC(=O)CCC)c3c(=O)c2OC(=O)CCC)cc1 [Compound 166, 4-[3,5,7-tris(butanoyloxy)-4-oxo-4H-chromen-2-yl]phenyl butanoate]
[1]
  Assay 1 (SGF) (% Remaining @ 1 hour): B (25-75% of the tested compound remaining)
[2]
  Assay 2 (SIF) (% @ Remaining 4 hours): A (<25% of the tested compound remaining)
[3]
  Assay 3 (% Remaining at 24 h): A (<25% of the tested compound remaining)

## CCC(=O)O[C@H]1[C@H](OC(=O)/C=C/c2c[nH]c3ccccc23)OC[C@@H](OC(=O)CC)[C@H]1OC(=O)CC [Compound 92, (2S,3R,4R,5R)-3,4,5-tris(propanoyloxy)oxan-2-yl (2E)-3-(1H-indol-3-yl)prop-2-enoate]
[1]
  Assay 1 (SGF) (% Remaining @ 1 hour): C (>75% of the tested compound remaining)
[2]
  Assay 2 (SIF) (% @ Remaining 4 hours): A (<25% of the tested compound remaining)
[3]
  Assay 3 (% Remaining at 24 h): A (<25% of the tested compound remaining)

## CCC(=O)OC[C@H]1O[C@H](OC(=O)Cc2c[nH]c3ccccc23)[C@H](OC(=O)CC)[C@@H](OC(=O)CC)[C@@H]1OC(=O)CC [Compound 114, [(2R,3R,4S,5R,6R)-6-{[2-(1H-indol-3-yl)acetyl]oxy}-3,4,5-tris(propanoyloxy)oxan-2-yl]methyl propanoate]
[1]
  Assay 1 (SGF) (% Remaining @ 1 hour): C (>75% of the tested compound remaining)
[2]
  Assay 2 (SIF) (% @ Remaining 4 hours): A (<25% of the tested compound remaining)
[3]
  Assay 3 (% Remaining at 24 h): A (<25% of the tested compound remaining)

## CC(=O)O[C@H]1OC[C@H](OC(C)=O)[C@H](OC(C)=O)[C@H]1OC(C)=O [Compound 219, (2R,3R,4S,5S)-tetrahydro-2H-pyran-2,3,4,5-tetrayl tetraacetate]
[1]
  Assay 1 (SGF) (% Remaining @ 1 hour): C (>75% of the tested compound remaining)
[2]
  Assay 2 (SIF) (% @ Remaining 4 hours): A (<25% of the tested compound remaining)
[3]
  Assay 3 (% Remaining at 24 h): A (<25% of the tested compound remaining)

## CCCC(=O)Oc1cc(OC(=O)CCC)c2c(c1)O[C@H](c1ccc(OC(=O)CCC)c(OC(=O)CCC)c1)[C@H](OC(=O)CCC)C2 [Compound 193, (2R,3R)-2-[3,4-bis(butanoyloxy)phenyl]-5,7-bis(butanoyloxy)-3,4-dihydro-2H-1-benzopyran-3-yl butanoate]
[1]
  Assay 1 (SGF) (% Remaining @ 1 hour): C (>75% of the tested compound remaining)
[2]
  Assay 2 (SIF) (% @ Remaining 4 hours): A (<25% of the tested compound remaining)
[3]
  Assay 3 (% Remaining at 24 h): A (<25% of the tested compound remaining)

## CCC(=O)O[C@@H]1[C@@H](OC(=O)CC)[C@H](C)O[C@@H](OC(=O)Cc2c[nH]c3ccccc23)[C@@H]1OC(=O)CC [Compound 115, (2S,3R,4R,5S,6S)-2-{[2-(1H-indol-3-yl)acetyl]oxy}-6-methyl-4,5-bis(propanoyloxy)oxan-3-yl propanoate]
[1]
  Assay 1 (SGF) (% Remaining @ 1 hour): C (>75% of the tested compound remaining)
[2]
  Assay 2 (SIF) (% @ Remaining 4 hours): A (<25% of the tested compound remaining)
[3]
  Assay 3 (% Remaining at 24 h): A (<25% of the tested compound remaining)

## CCC(=O)Oc1cc(OC(=O)CC)c2c(c1)O[C@H](c1ccc(OC(=O)CC)c(OC(=O)CC)c1)[C@H](OC(=O)CC)C2 [Compound 194, (2R,3R)-2-[3,4-bis(propanoyloxy)phenyl]-5,7-bis(propanoyloxy)-3,4-dihydro-2H-1-benzopyran-3-yl propanoate]
[1]
  Assay 1 (SGF) (% Remaining @ 1 hour): B (25-75% of the tested compound remaining)
[2]
  Assay 2 (SIF) (% @ Remaining 4 hours): A (<25% of the tested compound remaining)
[3]
  Assay 3 (% Remaining at 24 h): A (<25% of the tested compound remaining)

## CO[C@H]1O[C@H](COC(C)=O)[C@@H](OC(C)=O)[C@H](OC(C)=O)[C@@H]1OC(C)=O [Compound 161, (2R,3R,4S,5S,6S)-2-(acetoxymethyl)-6-methoxytetrahydro-2H-pyran-3,4,5-triyl triacetate]
[1]
  Assay 1 (SGF) (% Remaining @ 1 hour): C (>75% of the tested compound remaining)
[2]
  Assay 2 (SIF) (% @ Remaining 4 hours): C (>75% of the tested compound remaining)
[3]
  Assay 3 (% Remaining at 24 h): B (25-75% of the tested compound remaining)

## CC(=O)O[C@H]1O[C@H](C(=O)O)[C@@H](OC(C)=O)[C@H](OC(C)=O)[C@H]1OC(C)=O [Compound 163, (2S,3S,4S,5R,6R)-3,4,5,6-tetraacetoxytetrahydro-2H-pyran-2-carboxylic acid]
[1]
  Assay 1 (SGF) (% Remaining @ 1 hour): C (>75% of the tested compound remaining)
[2]
  Assay 2 (SIF) (% @ Remaining 4 hours): C (>75% of the tested compound remaining)
[3]
  Assay 3 (% Remaining at 24 h): B (25-75% of the tested compound remaining)

## O=C(CCc1c[nH]c2ccccc12)O[C@@H]1OC[C@@H](OC(=O)CCc2c[nH]c3ccccc23)[C@@H](OC(=O)CCc2c[nH]c3ccccc23)[C@H]1OC(=O)CCc1c[nH]c2ccccc12 [Compound 80, (2S,3R,4R,5R)-3,4,5-tris({[3-(1H-indol-3-yl)propanoyl]oxy})oxan-2-yl 3-(1H-indol-3-yl)propanoate]
[1]
  Assay 1 (SGF) (% Remaining @ 1 hour): C (>75% of the tested compound remaining)
[2]
  Assay 2 (SIF) (% @ Remaining 4 hours): A (<25% of the tested compound remaining)
[3]
  Assay 3 (% Remaining at 24 h): A (<25% of the tested compound remaining)

## C[C@@H]1OC(O)[C@@H](OC(=O)CCc2c[nH]c3ccccc23)[C@H](OC(=O)CCc2c[nH]c3ccccc23)[C@@H]1OC(=O)CCc1c[nH]c2ccccc12 (stereo partly drawn) [Compound 62, (2S,3R,4R,5S)-6-hydroxy-4,5-bis({[3-(1H-indol-3-yl)propanoyl]oxy})-2-methyloxan-3-yl 3-(1H-indol-3-yl)propanoate]
[1]
  Assay 1 (SGF) (% Remaining @ 1 hour): C (>75% of the tested compound remaining)
[2]
  Assay 2 (SIF) (% @ Remaining 4 hours): A (<25% of the tested compound remaining)
[3]
  Assay 3 (% Remaining at 24 h): C (>75% of the tested compound remaining)
